{
  "source": "patent US20060233711A1",
  "about": "“Method for treating conditions associated with fear memory” (priority 2005, published 2006)",
  "key": {"AMPA receptors": {"molecular_target": "AMPA receptors", "settings": "cited from earlier work"}, "[1]": {"test_system": "EPSCs in LA neurons (thalamic input)", "assay": "Whole-cell patch-clamp recording of EPSCs in lateral amygdala neurons in slices", "type": "cell-based, mice", "description": "Transverse slices ([…]) of the amygdala were transferred to a room temperature submerged recovery chamber with oxygenated (95% O2 and 5% CO2) ACSF solution as described above. After a one hour recovery, slices were placed in a recording chamber on the stage of an Axioskop 2FS microscope (Zeiss) equipped with infrared DIC optics for visualized whole-cell patch clamp recordings. Excitatory postsynaptic currents were recorded from cells in the lateral amygdala with an Axon 200B amplifier (Axon Instruments, Calif., USA). Electrical stimulations (200 μsec duration) were delivered by a bipolar tungsten stimulating electrode placed in the internal capsule (thalamic inputs) (Tsvetkov et al., 2004). EPSCs were induced by repetitive stimulations at 0.02-0.05 Hz and neurons were voltage clamped at −70 mV. In all experiments, the stimulus intensity was adjusted to produce synaptic responses with an amplitude of 70-100 pA. […] Access resistance was 15-30 M ? and monitored throughout the experiment. […]"}, "KARs": {"test_system": "KARs", "settings": "SYM2206 at 100 μM; cited from earlier work"}, "GluR5": {"test_system": "GluR5", "settings": "treated animals; cited from earlier work"}},
  "data": [
    {"smiles": "CCCNC(=O)N1N=C(c2ccc(N)cc2)c2cc3c(cc2C1C)OCO3", "note": "(racemic) [SYM2206, (±)-4-(4-aminophenyl)-1,2-dihydro-1-methyl-2-propylcarbamoyl-6,7-methylenedioxyphthalazine]", "values": [
      {"measurement": "IC50", "setting": "AMPA receptors; AMPA receptors, read-out: half-maximal inhibitory concentration", "result": "1000 to 2000", "unit": "nM"},
      {"measurement": "inhibition of AMPA receptors", "setting": "AMPA receptors; SYM2206 at 100 μM", "result": "maximal inhibition"},
      {"measurement": "effect on EPSCs", "setting": "[1]; bath application of AP5 (50 μM) plus SYM2206 (100 μM), n=17, LA neurons", "result": "reduced, but did not completely block"},
      {"measurement": "inhibition of KARs", "setting": "KARs", "result": "20-30%"}
    ]},
    {"smiles": "N#Cc1cc2[nH]c(=O)c(=O)[nH]c2cc1[N+](=O)[O-]", "note": "[CNQX]", "values": [
      {"measurement": "effect on residual (SYM2206-insensitive) current", "setting": "[1]; CNQX 20 μM, after AP5 plus SYM2206, n=5", "result": "completely blocked"}
    ]},
    {"smiles": "O=C(O)c1ccc(C[C@H]2CC[C@H]3CN[C@H](C(=O)O)C[C@H]3C2)cc1", "note": "[LY382884]", "values": [
      {"measurement": "behavioral responses to formalin and Complete Freund's adjuvant (CFA)", "setting": "GluR5", "result": "reduced"}
    ]}
  ]
}
